Test results: patent US20090170759A1, “NEUROPROTECTIVE PEPTIDES” (priority 2007, published 2009)

Legend:
[1] = system: rat cerebral cortical cultures; assay: Neurite outgrowth assay (MAP2-FITC immunofluorescence), cortical cultures; assay type: cell-based; settings: figure legends
Source text: (§1) Dissociated hippocampal and cortical cell cultures were established from embryonic day 18 rat fetuses as previously described (Mattson et al., 1994). Briefly, fetuses were removed via cesarean section from pregnant moms (Sprague-Dawley) anesthetized with halothane according to the AVMA Panel on Euthanasia. Pups were decapitated and the brains were removed and placed in HEPES-buffered Hank's Balanced Salt solution (HBSS; Gibco). The hippocampi and cortices were dissected out and pooled according to tissue-type. Tissue was trypsinized for 15 min (1 mg/ml trypsin-HBSS; Worthington), rinsed with fresh HBSS, incubated in trypsin inhibitor (1 mg/ml; Sigma) for 5 min, rinsed again with fresh HBSS and then triturated in 1 ml fresh HBSS with a fire-polished glass pipette. Dissociated cells were seeded at 30,000 cells/well onto poly-D-lysine coated 96-well plates (Collaborative BioScience). Each well contained 100 μl of Eagle's Minimal Essential Media (MEM; Gibco) supplemented with 26 mM NaHCO3 (Sigma), 56 mM glucose (Sigma), 15 mM KCl (Sigma), 1 mM sodium pyruvate (Sigma), 1.1 mM L-glutamine (Sigma), 10% (v/v) heat-inactivated fetal bovine serum (Hyclone), and 0.001% gentamicin sulfate (Sigma) (pH 7.4). Cells were allowed to attach for 24 h in a humidified 37° C. 5% CO2 incubator before experimental treatment. The culture media was aspirated and exchanged with fresh media every three days.
(§2) Twenty-four hours after plating, cultures were treated with vehicle (PBS+0.1% BSA), 100 ng of various growth factors (brain derived neurotrophic factor (BDNF; Promega), glial-derived neurotrophic factor (GDNF; Promega), nerve growth factor (NGF; Boehringer Mannheim), basic fibroblast growth factor (bFGF; Boehringer Mannheim), insulin-like growth factor-1 (IGF-1; Boehringer Mannheim), neurotrophin-3 (NT3; Calbiochem), neurotrophin-4 (NT4; Calbiochem), ciliary neurotrophic factor (CNTF; Calbiochem), epidermal growth factor (EGF; Calbiochem), vascular endothelial growth factor (VEGF; Calbiochem)), or rhEPO (prepared same as above; 10 fM-10 nM)). Each treatment condition was run in quadruplicate or octuplicate. On the third day in culture, the media was aspirated off and replaced with fresh media and test compound. At one week in culture, the cells were fixed with 10% phosphate-buffered formalin for 15 min, then rinsed with DPBS (Sigma) and placed in blocking serum for 30 min (horse serum; 1:50 dilution in DPBS; Vector Labs). Cultures were rinsed again with DPBS and then incubated in primary antibody for 2 hr (microtubule-associated protein-2 (MAP-2) is a selective marker for dendritic processes; anti-mouse monoclonal (Chemicon); 1:1000 dilution of MAP-2 in antibody diluent (Zymed)). Negative control wells were incubated in antibody diluent alone. Background signal was determined by blank wells (cell-free) incubated with or without antibody. Cultures were rinsed again with DPBS and then placed in fluorescein for 1 hr (FITC; anti-mouse IgG; rat adsorbed; 1:50 dilution in DPBS; Vector Labs). Cultures were rinsed a final time with DPBS and then the plates were read on a Cytofluor 4000 fluorescence plate reader. Neurite outgrowth was expressed as percent change from control (vehicle; mean fluorescence±SD).
(§3) Dissociated hippocampal and cortical cell cultures were established from embryonic day 18 rat fetuses as previously described (Mattson et al., 1994). Briefly, fetuses were removed via cesarean section from pregnant moms (Sprague-Dawley) anesthetized with halothane according to the AVMA Panel on Euthanasia. Pups were decapitated and the brains were removed and placed in HEPES-buffered Hank's Balanced Salt solution (HBSS; Gibco). The hippocampi and cortices were dissected out and pooled according to tissue-type. […]

rat hippocampal cultures = assay: Neurite outgrowth assay (MAP2-FITC immunofluorescence), hippocampal cultures; assay type: cell-based; settings: for neurite outgrowth in rat hippocampal cultures (in words): figure legends
Source text: as §1, §2, §3

| Sequence | neurite outgrowth in rat cerebral cortical cultures (in words) [1] | neurite outgrowth in rat hippocampal cultures (in words) (rat hippocampal cultures) | neurite outgrowth increase over vehicle at peak activity, hippocampal cultures (rat hippocampal cultures; Example 4, 10 fM-10 nM tested) |
| --- | --- | --- | --- |
| GGTASCHFGPLTWVCKPQGG [EMP-6] | promotes neurite outgrowth | promotes neurite outgrowth | – |
| GGTYSCFGPLTWVCKPQGG [EMP-27] | promotes neurite outgrowth | promotes neurite outgrowth | – |
| GGTYSCHFAPLTWVCKPQGG [EMP-9] | promotes neurite outgrowth | promotes neurite outgrowth | – |
| GGTYSCHFGPLTWVCKPQGG [EMP-1] | promotes neurite outgrowth | promotes neurite outgrowth | – |
| YCHFGPLTWVC [EMP-23] | promotes neurite outgrowth | promotes neurite outgrowth | 43-46% |
